Source: patent US4229443A, “Derivatives of penicillanic acid” (Leo Pharmaceutical Products, Ltd. A/S, priority 1976, dated 1980)
In brackets after ≈: the same amount, converted by molar mass. Structures can show the parent of a compound that is named as a salt. One block for each compound: values may come before it.

Key:
Format in all cases: cell-based
[1] = system: Pseudomonas aeruginosa BA 2 Leo strain; experiment: Antibacterial activity, 50% inhibition of growth, Pseudomonas aeruginosa BA 2 Leo strain; settings: BA2LEOSTRAIN, read-out: IC50 (concentration required for a 50% inhibition of growth)
Description: (§1) In the table below the antibacterial activity of the compound of Example 1, the 6-[4'-(3"-aminopropyl)-1'-piperidyl-methyleneamino]penicillanic acid hydrochloride, in the table called EB 686, is compared to that of the known compounds Ampicillin and Mecillinam (a compound of the above mentioned British Pat. No. 1,293,590).
(§2) *IC50 means the concentration required for a 50% inhibition of […]

E.coli HA 2 Leo strain = experiment: Antibacterial activity, 50% inhibition of growth, E.coli HA 2 Leo strain; settings: Escherichia coli, HA2LEOSTRAIN, read-out: IC50 (concentration required for a 50% inhibition of growth)
Description: as §1, §2

[2] = system: Salmonella cholerasuis NCTC 5735; experiment: Antibacterial activity, 50% inhibition of growth, Salmonella cholerasuis NCTC 5735; settings: NCTC5735, read-out: IC50 (concentration required for a 50% inhibition of growth)
Description: as §1, §2

[3] = system: Klebsiella pneumoniae AT CC 10273; experiment: Antibacterial activity, 50% inhibition of growth, Klebsiella pneumoniae AT CC 10273; settings: ATCC10273, read-out: IC50 (concentration required for a 50% inhibition of growth)
Description: as §1, §2

[4] = system: Salmonella typhimurium NCTC 5710; experiment: Antibacterial activity, 50% inhibition of growth, Salmonella typhimurium NCTC 5710; settings: Salmonella enterica, read-out: IC50 (concentration required for a 50% inhibition of growth)
Description: as §1, §2

[5] = system: Enterobacter cloacae P 99; experiment: Antibacterial activity, 50% inhibition of growth, Enterobacter cloacae P 99; settings: P99, read-out: IC50 (concentration required for a 50% inhibition of growth)
Description: as §1, §2

[6] = system: Pseudomonas aeruginosa PS 18s; experiment: Antibacterial activity, 50% inhibition of growth, Pseudomonas aeruginosa PS 18s; settings: PS18S, read-out: IC50 (concentration required for a 50% inhibition of growth)
Description: as §1, §2

E.coli W3110 (RTEM) = experiment: Antibacterial activity, 50% inhibition of growth, E.coli W3110 (RTEM); settings: Escherichia coli, read-out: IC50 (concentration required for a 50% inhibition of growth)
Description: as §1, §2

SMILES: CC1(C)S[C@@H]2[C@H](N=CN3CCC(CCCN)CC3)C(=O)N2[C@H]1C(=O)O [EB 686, 6-[4'-(3"-aminopropyl)-1'-piperidyl-methyleneamino]-penicillanic acid monohydrochloride]
IC50 [1]: 16 µg/mL
IC50 (E.coli HA 2 Leo strain): 0.016 µg/mL
IC50 [2]: 0.0063 µg/mL
IC50 [3]: 0.04 µg/mL
IC50 [4]: 0.016 µg/mL
IC50 [5]: 0.02 µg/mL
IC50 [6]: 5 µg/mL
IC50 (E.coli W3110 (RTEM)): 0.5 µg/mL

SMILES: CC1(C)S[C@@H]2[C@H](NC(=O)[C@H](N)c3ccccc3)C(=O)N2[C@H]1C(=O)O [Ampicillin]
IC50 [1]: > 100 µg/mL
IC50 (E.coli HA 2 Leo strain): 1.3 µg/mL (≈ 3.72 µM)
IC50 [2]: 0.25 µg/mL (≈ 0.715 µM)
IC50 [3]: 79 µg/mL (≈ 226 µM)
IC50 [4]: 0.4 µg/mL (≈ 1.14 µM)
IC50 [5]: > 100 µg/mL
IC50 [6]: 50 µg/mL (≈ 143 µM)
IC50 (E.coli W3110 (RTEM)): > 100 µg/mL

SMILES: CC1(C)S[C@@H]2[C@H](/N=C/N3CCCCCC3)C(=O)N2[C@H]1C(=O)O [Mecillinam]
IC50 [1]: > 100 µg/mL
IC50 (E.coli HA 2 Leo strain): 0.016 µg/mL (≈ 0.0492 µM)
IC50 [2]: 0.05 µg/mL (≈ 0.154 µM)
IC50 [3]: ~1 µg/mL (≈ 3.07 µM)
IC50 [4]: 0.05 µg/mL (≈ 0.154 µM)
IC50 [5]: 0.1 µg/mL (≈ 0.307 µM)
IC50 [6]: > 100 µg/mL
IC50 (E.coli W3110 (RTEM)): 2 µg/mL (≈ 6.15 µM)

The next lines start with results.

IC50 [1]: 20 µg/mL
IC50 [4]: 0.05 µg/mL
SMILES: CC(C)(C)C(=O)OCOC(=O)[C@@H]1N2C(=O)[C@@H](N=CN3CCCC(C(CN)CN)CC3)[C@H]2SC1(C)C (stereo partly shown) [Example 28F, Pivaloyloxymethyl 6-[(4'-(1",3"-diaminopropyl-2")-hexahydro-1'H-azepin-1'-yl)-methyleneamino]-penicillanate, trihydrochloride]
IC50 (E.coli HA 2 Leo strain): 0.05 µg/mL

IC50 [4]: 0.2 µg/mL (≈ 0.546 µM)
SMILES: CC1(C)S[C@@H]2[C@H](N=CN3CCC(CN=[N+]=[N-])CC3)C(=O)N2[C@H]1C(=O)O [Example 2D, 6-[4'-azidomethyl-1'-piperidyl-methyleneamino]-penicillanic acid]
IC50 (E.coli HA 2 Leo strain): 0.05 µg/mL (≈ 0.136 µM)

IC50 [4]: 0.5 µg/mL (≈ 1.27 µM)
SMILES: CC1(C)S[C@@H]2[C@H](N=CN3CCC(CCCN=[N+]=[N-])CC3)C(=O)N2[C@H]1C(=O)O [Example 1D, 6-[4'-(3"-azidopropyl)-1'-piperidyl-methyleneamino]-penicillanic acid]
IC50 (E.coli HA 2 Leo strain): 0.04 µg/mL (≈ 0.101 µM)
